Results taken from patent publication US12447149B2, “Formulations of vimseltinib” (Deciphera Pharmaceuticals, LLC, priority 2023, dated 2025).

Tests used:
Type in all cases: physicochemical
[1] = Particle size distribution (PSD) of crystalline dihydrate form and seeds, DMAC-water crystallization; details: for particle size d10 of seeds / particle size d50 of seeds / particle size d90 of seeds: seeds used in DMAC-water crystallization
[2] = Particle size analysis by laser diffraction (Malvern Mastersizer 3000, wet dispersion); details: volume distribution
Method: Particle size analysis of dihydrate vimseltinib drug substance samples was determined by laser diffraction using a Malvern Mastersizer 3000 instrument in a wet dispersion mode.
Prior to analysis, dihydrate drug substance samples were rotated and inverted in the sample container at least 10 times to ensure homogeneity. Between 20 and 25 mg of sample was weighed into a Malvern Glass tube. 20 mL of the Dispersant Solution (0.1% Span 85 in Isoparaffin G) was added and vortexed until a homogeneous suspension was obtained (˜30 s). The sample was then placed in a Vibra-Cell ultrasonic processor. The amplitude was set to the target of 30% (4 Watts) using an external probe (Vibra-Cell) during 90 sec.
After background measurement, the sample dispersion was slowly added to the dispersion unit of the instrument to achieve an obscuration level target of 5%. The sample was stirred at 3250 rpm for at least 1 minute to ensure dispersion and stabilization of the sample. After stabilization, the measurement was started and performed using a Malvern Mastersizer 3000 according to the method conditions provided in Table 17.

[3] = Hydration of crystalline anhydrous form in low water activity solvents (XRPD); details: Ambient
Method: The hydration of the crystalline anhydrous form was studied using aqueous solvent systems with low water activity of 0.1. Slurries of the crystalline anhydrous form in the respective solvent were agitated for 6 days at room temperature. Aliquots of isolated materials were analyzed after 24, 48, and 144 hours of agitation. Table 12 summarizes the experiment conditions and isolated crystalline forms, as determined by XRPD.

[4] = Static storage stability of crystalline dihydrate and anhydrous forms (XRPD, DSC, KF weekly for four weeks)
Method: The stability of crystalline dihydrate and anhydrous forms of the compound represented by Formula (I) at varying relative humidity (RH) and temperature was investigated.
For example, the stability of crystalline dihydrate and anhydrous forms of the compound represented by Formula (I), as prepared according to Example 1 and Example 2, respectively, was studied under other conditions by placing aliquots of each form in static storage at conditions of 40° C./75% RH, 25° C./97% RH, 40° C./0% RH and 25° C./0% RH and analyzing the aliquots once weekly for four weeks using XRPD, DSC, and KF.

[5] = Hydration experiment: slurry of crystalline anhydrous form in deionized water, heat-cool cycles; details: 4-hour heat-cool cycles between 40° C. and room temperature for 72 hours
Method: In a hydration experiment, a slurry of the crystalline anhydrous form of the compound represented by Formula (I) and deionized water was subjected to successive 4-hour heat-cool cycles between 40° C. and room temperature for 72 hours.

[6] = milled seeds of crystalline dihydrate form used in DMAC-water crystallization, listed as 3
[7] = jet-milled seed batch, crystallization 1 at 60° C. with 7% seeds, crystallization 2 at 64° C. with 5% seeds
[8] = listed as seeds of a smaller size
[9] = crystallization outputs using seeds of a smaller size (about 1/3/5 μm)
[10] = crystallized with milled seeds of about 3/6/12 μm, seeding about 65° C., about 3% seeds, laboratory and production scale

## Cc1nc(-c2cnc(NC(C)C)n(C)c2=O)ccc1Oc1ccnc(-c2cnn(C)c2)c1.O.O [Lot 3]
[1]; [6]
  Particle Size d10: 3 microns
  Particle Size d50: 6 microns
  Particle Size d90: 12 microns
[2]; listed as 3
  D(10): 6 μm
  D(50): 17 μm
  D(90): 33 μm

## Cc1nc(-c2cnc(NC(C)C)n(C)c2=O)ccc1Oc1ccnc(-c2cnn(C)c2)c1.O.O [Lot 4]
[2]; listed as 4
  D(10): 7 μm
  D(50): 19 μm
  D(90): 36 μm

## Cc1nc(-c2cnc(NC(C)C)n(C)c2=O)ccc1Oc1ccnc(-c2cnn(C)c2)c1.O.O [Seed batch]
[1]; [7]
  Particle Size d10: 1.4 microns
  Particle Size d50: 2.7 microns
  Particle Size d90: 5.0 microns
[1]; [8]
  particle size d10 of seeds: about 1 μm
  particle size d50 of seeds: about 3 μm
  particle size d90 of seeds: about 5 μm

## Cc1nc(-c2cnc(NC(C)C)n(C)c2=O)ccc1Oc1ccnc(-c2cnn(C)c2)c1 [crystalline anhydrous form]
[3]; Acetone/water (99:1), 24 h
  Observed Forms: Anhydrous
[3]; Acetone/water (99:1), 144 h
  Observed Forms: Anhydrous
[3]; MEK/water (99:1), 24 h
  Observed Forms: Anhydrous
[3]; MEK/water (99:1), 144 h
  Observed Forms: Dihydrate
[4]; all storage conditions (40° C./75% RH, 25° C./97% RH, 40° C./0% RH, 25° C./0% RH), after 4 weeks
  stability of the solid form on storage: remained stable
[5]
  isolated solid form by XRPD: crystalline dihydrate form

## Cc1nc(-c2cnc(NC(C)C)n(C)c2=O)ccc1Oc1ccnc(-c2cnn(C)c2)c1.O.O [crystalline dihydrate form ground in a mortar and pestle]
[4]; storage 40° C./0% RH, Week 1
  XRPD: Pattern 4 and the crystalline anhydrous form were observed

## Cc1nc(-c2cnc(NC(C)C)n(C)c2=O)ccc1Oc1ccnc(-c2cnn(C)c2)c1.O.O [milled seeds]
[1]
  particle size d10 of seeds: about 3 μm
  particle size d50 of seeds: about 6 μm
  particle size d90 of seeds: about 12 μm

## Cc1nc(-c2cnc(NC(C)C)n(C)c2=O)ccc1Oc1ccnc(-c2cnn(C)c2)c1.O.O [non-milled batch of crystalline dihydrate form of the compou]
[1]
  particle size d10 of seeds: about 5 μm
  particle size d50 of seeds: about 15 μm
  particle size d90 of seeds: about 36 μm

## Cc1nc(-c2cnc(NC(C)C)n(C)c2=O)ccc1Oc1ccnc(-c2cnn(C)c2)c1 [vimseltinib]
[1]; [9]
  Particle Size d10: about 4 μm
  Particle Size d50: about 8 μm
  Particle Size d90: about 16 μm
[1]; [10]
  Particle Size d10: 6-8 μm
  Particle Size d50: 16-22 μm
  Particle Size d90: 33-40 μm
